From BindingDB's records for doi:10.1016/j.bmcl.2017.02.035 (Nestl&#65533, 2017)

Target: Disintegrin and metalloproteinase domain-containing protein 17 (Homo sapiens, UniProt P78536)
Assay: Inhibition of recombinant TACE catalytic domain (unknown origin) using Abz-LAQAVRSSSR-Dpa as substrate preincubated for 10 mins followed by substrate addition measured after 10 mins by FRET assay

Disintegrin and metalloproteinase domain-containing protein 17, sequence (P78536 whole entry, the tested form may be a part): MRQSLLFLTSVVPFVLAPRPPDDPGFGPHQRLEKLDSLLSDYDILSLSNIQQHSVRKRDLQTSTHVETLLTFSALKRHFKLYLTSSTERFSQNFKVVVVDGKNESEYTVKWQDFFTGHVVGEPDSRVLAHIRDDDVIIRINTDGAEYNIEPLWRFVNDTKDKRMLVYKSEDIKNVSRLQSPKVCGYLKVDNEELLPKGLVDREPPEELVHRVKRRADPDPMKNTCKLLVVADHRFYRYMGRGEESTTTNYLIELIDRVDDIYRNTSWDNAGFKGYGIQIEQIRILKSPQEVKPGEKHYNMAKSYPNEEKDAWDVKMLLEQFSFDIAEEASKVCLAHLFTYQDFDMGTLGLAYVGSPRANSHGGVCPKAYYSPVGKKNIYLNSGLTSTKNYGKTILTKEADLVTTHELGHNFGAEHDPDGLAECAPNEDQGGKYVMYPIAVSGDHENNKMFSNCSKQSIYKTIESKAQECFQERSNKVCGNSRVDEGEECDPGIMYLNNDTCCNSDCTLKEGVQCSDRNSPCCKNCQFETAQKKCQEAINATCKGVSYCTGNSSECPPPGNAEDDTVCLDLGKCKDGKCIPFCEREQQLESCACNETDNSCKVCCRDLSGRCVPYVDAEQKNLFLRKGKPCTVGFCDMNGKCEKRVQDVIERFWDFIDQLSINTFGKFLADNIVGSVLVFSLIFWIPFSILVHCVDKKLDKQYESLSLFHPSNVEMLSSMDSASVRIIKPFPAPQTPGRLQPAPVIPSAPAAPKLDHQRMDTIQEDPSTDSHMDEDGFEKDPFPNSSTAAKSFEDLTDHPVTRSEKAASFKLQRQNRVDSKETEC

IC50: 0.7 nM
Structure (SMILES): C#CCN1C[C@H](C(=O)NO)[C@H](NS(=O)(=O)c2ccc(OCc3cc(C)nc4ccccc34)cc2)C1
